pIC50: −log10 of the molar value. ≈ marks a conversion by molar mass, not a printed value. Where two headings read alike, the source gives them in different places.
How the values were obtained:
PDE5 = PDE5 (Homo sapiens, UniProt O76074); assay: PDE-5 human inhibition; assay type: biochemical
[1] = T1/2 in human liver microsomes; assay type: in vitro ADME
PDE-6 bovine = molecular target: T1, PDE-6 bovine (Bos taurus, UniProt P11541+P23439); assay: PDE-6 bovine inhibition; assay type: biochemical
T1 sequence (P11541 2-856 limits assumed): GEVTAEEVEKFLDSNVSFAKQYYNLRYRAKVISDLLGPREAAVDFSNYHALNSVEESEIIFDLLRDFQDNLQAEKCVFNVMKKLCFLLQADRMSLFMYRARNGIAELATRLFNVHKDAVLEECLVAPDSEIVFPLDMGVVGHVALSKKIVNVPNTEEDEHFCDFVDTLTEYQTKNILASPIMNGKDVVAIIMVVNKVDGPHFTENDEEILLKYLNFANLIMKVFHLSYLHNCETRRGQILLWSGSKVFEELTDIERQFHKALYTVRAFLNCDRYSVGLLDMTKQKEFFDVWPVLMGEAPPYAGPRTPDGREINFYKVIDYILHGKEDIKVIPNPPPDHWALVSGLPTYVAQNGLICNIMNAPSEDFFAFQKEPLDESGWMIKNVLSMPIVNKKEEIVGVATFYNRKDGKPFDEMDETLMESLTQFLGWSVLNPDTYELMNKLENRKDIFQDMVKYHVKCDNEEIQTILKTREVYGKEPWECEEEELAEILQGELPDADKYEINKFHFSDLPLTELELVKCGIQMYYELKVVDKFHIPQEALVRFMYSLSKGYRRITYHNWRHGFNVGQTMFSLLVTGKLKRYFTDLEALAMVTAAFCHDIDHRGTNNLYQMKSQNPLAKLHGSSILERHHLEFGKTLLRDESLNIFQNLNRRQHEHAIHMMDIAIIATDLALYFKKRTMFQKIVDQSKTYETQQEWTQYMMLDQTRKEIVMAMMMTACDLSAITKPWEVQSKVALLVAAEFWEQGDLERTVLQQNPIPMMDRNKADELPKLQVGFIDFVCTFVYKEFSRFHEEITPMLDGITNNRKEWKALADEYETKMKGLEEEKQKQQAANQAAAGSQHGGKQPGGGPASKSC
T1 sequence (P23439 2-850 limits assumed): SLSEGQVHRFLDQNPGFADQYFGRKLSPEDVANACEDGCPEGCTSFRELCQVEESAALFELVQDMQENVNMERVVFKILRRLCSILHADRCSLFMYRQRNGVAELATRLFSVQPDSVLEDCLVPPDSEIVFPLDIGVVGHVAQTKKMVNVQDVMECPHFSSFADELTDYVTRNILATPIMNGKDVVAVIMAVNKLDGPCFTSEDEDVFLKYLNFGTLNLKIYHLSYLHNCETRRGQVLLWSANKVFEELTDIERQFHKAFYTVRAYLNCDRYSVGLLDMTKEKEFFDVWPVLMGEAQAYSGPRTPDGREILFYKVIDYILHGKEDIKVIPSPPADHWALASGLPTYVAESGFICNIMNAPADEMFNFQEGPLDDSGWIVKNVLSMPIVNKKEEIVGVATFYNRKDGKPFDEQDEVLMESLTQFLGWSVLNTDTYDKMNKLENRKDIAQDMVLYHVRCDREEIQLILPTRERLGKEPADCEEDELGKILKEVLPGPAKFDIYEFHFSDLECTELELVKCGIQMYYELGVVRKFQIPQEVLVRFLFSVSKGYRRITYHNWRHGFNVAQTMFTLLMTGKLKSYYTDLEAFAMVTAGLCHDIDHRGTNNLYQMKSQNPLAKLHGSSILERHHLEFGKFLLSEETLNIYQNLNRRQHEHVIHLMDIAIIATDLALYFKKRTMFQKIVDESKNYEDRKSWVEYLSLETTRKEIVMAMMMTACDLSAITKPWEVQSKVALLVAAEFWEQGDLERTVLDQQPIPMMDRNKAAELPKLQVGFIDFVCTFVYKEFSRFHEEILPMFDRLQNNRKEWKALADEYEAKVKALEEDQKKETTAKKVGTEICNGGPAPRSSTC

[2] = T1/2 in rat liver microsomes; assay type: in vitro ADME
Solubility = assay type: physicochemical
PAMPA permeability = assay type: in vitro ADME; conditions: Hex, read-out: PAMPA Hex
PDE-1 = PDE-1 inhibition; assay type: biochemical
[3] = Chronic Cytoxicity (mouse 3T3); assay type: cell-based; conditions: 3T3 cells
Caco-2 permeability = assay type: in vitro ADME; conditions: human; for Papp A→B: AtoB; for Papp B→A: BtoA
Source text: Several model systems are available, employing monolayers of various cell types, for evaluation of active transport of pharmaceutically active substances. For example, monolayers of Caco-2 intestinal epithelial cells can be used to evaluate active transport of substances between the intestine and the bloodstream. When plated on a surface which allows the flow of material from apical to basolateral and vice versa, such cells form a biological membrane which can be used to simulate physiological absorption and bioavailability. In another example, mouse brain capillary endothelial cell (MBEC) lines have been established to evaluate active transport in and out of the central nervous system. Another example of such cells is HT29 human colon carcinoma cells. Further, monolayers expressing particular transporter proteins can be established using transfected cells. For example, Sasaki et al (2002) J. Biol. Chem. 8:6497 used a double-transfected Madin-Darby canine kidney cell monolayer to study transport of organic anions.

Protein Binding = assay type: in vitro ADME; conditions: human, human serum components
Procedure: In general, protein binding is assessed by measuring the capacity of molecules of the invention to bind to one or more human serum components or mimics thereof. In one embodiment, suitable functional residues may be identified by screening of surfaces comprising such residues for their ability to resist adsorption of serum components, including, but not limited to serum proteins, and preferably human serum proteins. Candidate residues can be screened directly by attaching them to a solid support and testing the support for protein resistance. Alternatively, candidate residues are incorporated into, or linked to molecules of pharmaceutical interest. Such compounds may be synthesized on a solid support, or bound to a solid support after synthesis. In a non-limiting example of a direct binding assay, immobilized candidate functional residues or molecules incorporating such residues are tested for their ability to bind serum components. The serum components can be labeled with a signaling moiety for detection, or a labeled secondary reagent that binds to such serum components can be used.
A direct binding analysis can also be preformed in liquid phase. For example, test compounds can be mixed with one or more serum components in liquid phase, and the unbound molecules determined.

PDE-4 human = PDE-4 human inhibition; assay type: biochemical
PDE-3 = PDE-3 inhibition; assay type: biochemical
Non-Spec Binding = assay type: in vitro ADME
[4] = pH 2.7, aqueous buffer, read-out: Solubility (ug/mL) pH 2.7
[5] = pH 7.4, aqueous buffer, read-out: Solubility (ug/mL) pH 7.4

| pIC50 (PDE5) | half-life [1] | pIC50 (PDE-6 bovine) | half-life [2] | solubility (Solubility; [4]) | solubility (Solubility; [5]) | Papp (PAMPA permeability) | pIC50 (PDE-1) | Papp A→B (Caco-2 permeability) | Papp B→A (Caco-2 permeability) | fraction unbound (Protein Binding) | pIC50 (PDE-4 human) | pIC50 (PDE-3) | Non-Spec Binding (%) (Non-Spec Binding) | SMILES | GI50 [3] | LC50 (50% lethal concentration) [3] |
| --- | --- | --- | --- | --- | --- | --- | --- | --- | --- | --- | --- | --- | --- | --- | --- | --- |
| 9.85 | 34 min | 8.36 | 45.4 min | 124 µg/mL (≈ 228 µM) | 111 µg/mL (≈ 204 µM) | ~1.06 ×10⁻⁶ cm/s | 7.02 |  |  |  |  |  |  | CCCc1nc(C)c2c(=O)[nH]c(-c3cc(S(=O)(=O)N4CCN(C(=O)CN(C)C)CC4)ccc3OCC)nn12 [Compound 1] |  |  |
| 9.95 | 9.83 min | 9.02 | 9.8 min |  |  | 133 ×10⁻⁶ cm/s | 7.89 | 55.1 ×10⁻⁶ cm/s | 60.9 ×10⁻⁶ cm/s | 0.01 | 5.95 | 6.16 | 35.85% | CCCc1nc(C)c2c(=O)[nH]c(-c3cc(S(=O)(=O)N(CC)CCOC)ccc3OCC)nn12 [Compound 9] | 87300 nM | > 100000 nM |
| 9.80 | 30.8 min | 8.96 | 34 min | 115 µg/mL (≈ 200 µM) | 110 µg/mL (≈ 192 µM) |  | 7.33 | 8.45 ×10⁻⁶ cm/s | 40.6 ×10⁻⁶ cm/s | 0.155 | 5.43 | 5.65 | 8.78% | CCCc1nc(C)c2c(=O)[nH]c(-c3cc(S(=O)(=O)N4CCN(CCN5CCOCC5)CC4)ccc3OCC)nn12 [Compound 15] |  |  |
| 10.18 | 1.08 min | 9.07 | 6.83 min |  |  |  | 8.59 | 40.5 ×10⁻⁶ cm/s | 39.4 ×10⁻⁶ cm/s | 0.016 | 5.96 | 6.41 | 36.5% | CCCc1nc(C)c2c(=O)[nH]c(-c3cc(S(=O)(=O)N(C)CC(OC)OC)ccc3OCC)nn12 [Compound 17] |  |  |
| 10.43 | 44.1 min | 9.19 | 33 min |  |  |  | 7.80 | 4.11 ×10⁻⁶ cm/s | 46.3 ×10⁻⁶ cm/s | 0.0945 | 5.89 | 6.29 | 22.15% | CCCc1nc(C)c2c(=O)[nH]c(-c3cc(S(=O)(=O)N4CCN(CC(=O)NC(C)C)CC4)ccc3OCC)nn12 [Compound 18] |  |  |
| 10.25 | 22.4 min | 9.16 | 24 min |  |  |  | 8.59 | 7.86 ×10⁻⁶ cm/s | 44.8 ×10⁻⁶ cm/s | 0.104 | 6.16 | 5.92 | 15.5% | CCCc1nc(C)c2c(=O)[nH]c(-c3cc(S(=O)(=O)N4CCN(C(=O)C5CCCO5)CC4)ccc3OCC)nn12 (stereo not shown) [Compound 19] |  |  |
| 8.82 | 47 min | 7.92 | 34 min | 112 µg/mL (≈ 194 µM) | 26 µg/mL (≈ 45.3 µM) |  | 7.12 |  |  | 0.071 | 5.43 | 5.02 | 68.4% | CCCc1nn(C)c2c(=O)[nH]c(-c3cc(S(=O)(=O)N4CCN(CCN5CCOCC5)CC4)ccc3OCC)nc12 [Compound 21] |  |  |

Reference: US8853394B2, “Pharmacokinetically improved compounds” (Surface Logix, Inc., priority 2006, dated 2014)
